# In patent US9745289B2, “Aldosterone synthase inhibitors” (Boehringer Ingelheim International GmbH, priority 2014, dated 2017):
# Biological target: cortisol synthase (CYP11B1) (Macaca fascicularis, UniProt A0A2K5ULY1)
# Assay: Inhibition of Cortisol Synthesis
# Assay type: biochemical, cynomolgus monkey
# Conditions: cynomolgus adrenal gland mitochondria; 150 units of CYP11B1, 11-deoxycortisol as substrate, cortisol measured as product
# Method in brief: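 Cynomolgus adrenal mitochondria as enzyme source (1 unit = 1 pmol product/h); 150 units CYP11B1 with 11-deoxycortisol substrate in 100 mM potassium phosphate pH 7.4, 1% DMSO, started with 1 mM NADPH, 90 min at 37 °C. Cortisol quantified by mass spectrometry; no-NADPH blank as 0%, no-compound as 100% activity.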
compound,measurement,value
"N#Cc1cccc2c1OCC(c1cncc(CNC(=O)C(F)(F)F)c1)O2 (stereo not shown) [Cpd 53, N-[5-(5-Cyano-2,3-dihydro-benzo[1,4]dioxin-2-yl)-pyridin-3-ylmethyl]-2,2,2-trifluoro-acetamide]",IC50,24 µM
